Laboratory results from PubChem BioAssay AID1259407 (Chemical Carcinogenesis Research Information System (CCRIS), 2018).
Activity calls are given as the source filed them. The rule behind the calls is not given here.

System: CCRIS mutagenicity, Ames/micronucleus/aberration tests
Assay: CCRIS mutagenicity studies
[1] = Test System: AMES SALMONELLA TYPHIMURIUM, Strain/Indicator: TA98, Metabolic Activation: NONE, Method: STANDARD PLATE
[2] = Test System: AMES SALMONELLA TYPHIMURIUM, Strain/Indicator: TA100, Metabolic Activation: NONE, Method: STANDARD PLATE
[3] = Test System: AMES SALMONELLA TYPHIMURIUM, Strain/Indicator: TA100, Metabolic Activation: RAT, LIVER, S-9, AROCLOR 1254, Method: STANDARD PLATE
[4] = Test System: AMES SALMONELLA TYPHIMURIUM, Strain/Indicator: TA98, Metabolic Activation: RAT, LIVER, S-9, AROCLOR 1254, Method: STANDARD PLATE

NC[C@H]1CCCN1.O=C([O-])C1(C(=O)[O-])CCC1.[Pt+2]
mutagenic call [1]: inactive; negative
mutagenic call (Test System: AMES SALMONELLA TYPHIMURIUM, Strain/Indicator: TA98, Metabolic Activation: RAT, LIVER, S-9, PHENOBARBITAL AND 5,6-BENZOFLAVONE, Method: STANDARD PLATE): inactive; negative
mutagenic call [2]: inactive; negative
mutagenic call (Test System: AMES SALMONELLA TYPHIMURIUM, Strain/Indicator: TA100, Metabolic Activation: RAT, LIVER, S-9, PHENOBARBITAL AND 5,6-BENZOFLAVONE, Method: STANDARD PLATE): inactive; negative
mutagenic call (Test System: AMES SALMONELLA TYPHIMURIUM, Strain/Indicator: TA1535, Metabolic Activation: NONE, Method: STANDARD PLATE): inactive; negative
mutagenic call (Test System: AMES SALMONELLA TYPHIMURIUM, Strain/Indicator: TA1535, Metabolic Activation: RAT, LIVER, S-9, PHENOBARBITAL AND 5,6-BENZOFLAVONE, Method: STANDARD PLATE): inactive; negative
mutagenic call (Test System: AMES SALMONELLA TYPHIMURIUM, Strain/Indicator: TA1537, Metabolic Activation: NONE, Method: STANDARD PLATE): inactive; negative
mutagenic call (Test System: AMES SALMONELLA TYPHIMURIUM, Strain/Indicator: TA1537, Metabolic Activation: RAT, LIVER, S-9, PHENOBARBITAL AND 5,6-BENZOFLAVONE, Method: STANDARD PLATE): inactive; negative
mutagenic call (Test System: E. COLI, Strain/Indicator: WP2 UVRA, Metabolic Activation: NONE, Method: STANDARD PLATE): inactive; negative
mutagenic call (Test System: E. COLI, Strain/Indicator: WP2 UVRA, Metabolic Activation: RAT, LIVER, S-9, PHENOBARBITAL AND 5,6-BENZOFLAVONE, Method: STANDARD PLATE): inactive; negative

C=CCn1cc2c3c(cccc31)C1C[C@@H](C)CN(C#N)[C@@H]1C2 (stereo partly specified)
mutagenic call [3]: active; positive

CC(C)(C)NC[C@H](O)COc1ccccc1C1CCCC1
mutagenic call [1]: active; positive
mutagenic call [4]: inactive; negative
mutagenic call [2]: inactive; negative
mutagenic call [3]: inactive; negative
mutagenic call (Test System: AMES SALMONELLA TYPHIMURIUM, Strain/Indicator: TA102, Metabolic Activation: NONE, Method: STANDARD PLATE): inactive; negative
mutagenic call (Test System: AMES SALMONELLA TYPHIMURIUM, Strain/Indicator: TA102, Metabolic Activation: RAT, LIVER, S-9, AROCLOR 1254, Method: STANDARD PLATE): inactive; negative

O=[N+]([O-])c1cc2c3c(ccc2c2ccccc12)[C@H](O)[C@@H](O)C=C3
mutagenic call (Test System: AMES SALMONELLA TYPHIMURIUM, Strain/Indicator: TA98, Metabolic Activation: NONE, Method: PREINCUBATION): active; positive
mutagenic call [1]: inactive; negative
mutagenic call (Test System: AMES SALMONELLA TYPHIMURIUM, Strain/Indicator: TA98, Metabolic Activation: RAT, LIVER, S-9, AROCLOR 1254, Method: PREINCUBATION): inactive; negative
mutagenic call [4]: active; positive
mutagenic call (Test System: AMES SALMONELLA TYPHIMURIUM, Strain/Indicator: TA100, Metabolic Activation: NONE, Method: PREINCUBATION): active; positive
mutagenic call [2]: active; positive
mutagenic call (Test System: AMES SALMONELLA TYPHIMURIUM, Strain/Indicator: TA100, Metabolic Activation: RAT, LIVER, S-9, AROCLOR 1254, Method: PREINCUBATION): active; positive
mutagenic call [3]: active; positive
mutagenic call (Test System: CHINESE HAMSTER OVARY, Strain/Indicator: CHO-K1-BH4 (HGPRT)/6-THIOGUANINE, Metabolic Activation: NONE, Method: STANDARD PLATE): inactive; negative
mutagenic call (Test System: CHINESE HAMSTER OVARY, Strain/Indicator: CHO-K1-BH4 (HGPRT)/6-THIOGUANINE, Metabolic Activation: RAT, LIVER, S-9, AROCLOR 1254, Method: STANDARD PLATE): active; positive
mutagenic call (Test System: CHINESE HAMSTER OVARY, Strain/Indicator: CHO-UV5 (HGPRT)/6-THIOGUANINE, Metabolic Activation: NONE, Method: STANDARD PLATE): inactive; negative
mutagenic call (Test System: CHINESE HAMSTER OVARY, Strain/Indicator: CHO-UV5 (HGPRT)/6-THIOGUANINE, Metabolic Activation: RAT, LIVER, S-9, AROCLOR 1254, Method: STANDARD PLATE): active; positive

CCC[CH2][Sn]=[O]
mutagenic call (Test System: AMES SALMONELLA TYPHIMURIUM, Strain/Indicator: TA98, Metabolic Activation: NONE, Method: SUSPENSION/PLATE): inactive; negative
mutagenic call (Test System: AMES SALMONELLA TYPHIMURIUM, Strain/Indicator: TA100, Metabolic Activation: NONE, Method: SUSPENSION/PLATE): inactive; negative
